# Data taken from patent publication US6448202B1, “Withering-preventing and quick-acting nutrition supplementing agent for gramineous plants” (Ajinomoto Co., Inc., priority 1999, dated 2002).
# Tested on: lawn grass (European grass, evergreen lawn grass)
# Assay: Hydroponic cultivation of a lawn grass: withering prevention and growth
# Format: in vivo
# Conditions: for Average root length / Leaf length MAX. / Leaf length MIN. / Total weight of living plant: 5 stocks; for Number of days till the plants were withered: from transplantation till about 70 percent of the leaves were withered
# Procedure: Seedlings of a lawn grass (European grass, evergreen lawn grass) were cultivated and divided into eight groups of A to H, one group being composed of 80 stocks. In the groups B to H, inosine and uridine were added to each hydroponic liquid in such amount that the concentration became as shown in the table, and proline was diluted with water such that the concentration became as shown in the table and sprayed onto the leaves every day. Group A was the control.
# On the 35th day, five average stocks which had not been withered were sampled from each group. […] In the table, the number of days till the plants were withered means the number of days from transplantation of the seedlings till about 70 percent of the leaves were withered.
# [1] = group B: 2 ppm inosine in hydroponic liquid
# [2] = group B: 2 ppm inosine in hydroponic liquid, 35th day
# [3] = group D: 2 ppm proline sprayed onto leaves every day, 35th day
# [4] = group F: 35 ppm proline sprayed onto leaves every day, 35th day
# [5] = group G: 0.1 ppm proline sprayed onto leaves every day, 35th day
smiles,measurement,setting,value
"OC[C@H]1O[C@@H](n2cnc3c(O)ncnc32)[C@H](O)[C@@H]1O [inosine, reference compound]",Remarks,[1],Wilted and partially
same,Average root length,[2],2 cm
same,Leaf length MAX.,[2],27 cm
same,Leaf length MIN.,[2],8 cm
same,Total weight of living plant,[2],0.22 g
same,Number of days till the plants were withered,[1],25 days
O=C(O)[C@@H]1CCCN1 [proline],Remarks,group D: 2 ppm proline,Both leaves and steins
same,Average root length,[3],3 cm
same,Leaf length MAX.,[3],21 cm
same,Leaf length MIN.,[3],12 cm
same,Total weight of living plant,[3],0.54 g
same,Number of days till the plants were withered,group D: 2 ppm proline,38 days
same,Remarks,group F: 35 ppm proline,Partially wilted.
same,Average root length,[4],2 cm
same,Leaf length MAX.,[4],20 cm
same,Leaf length MIN.,[4],8 cm
same,Total weight of living plant,[4],0.28 g
same,Number of days till the plants were withered,group F: 35 ppm proline,28 days
same,Remarks,group G: 0.1 ppm proline,Partially wilted.
same,Average root length,[5],2 cm
same,Leaf length MAX.,[5],19 cm
same,Leaf length MIN.,[5],7 cm
same,Total weight of living plant,[5],0.22 g
same,Number of days till the plants were withered,group G: 0.1 ppm proline,27 days
same,"Growth at the root, leaf length and total weight of the living plants","proline-treated plot, especially at a concentration of 2 ppm, 35th day",better growth
